Measurements reported in PubChem BioAssay AID288 (DTP/NCI, 2004).
Several values for one entry are separate records, joined by “and”; a condition that tells them apart may be missing. Identical values can stand only once. Results filed as inconclusive are left out.

Test system: BDF1 mice, M5076 sarcoma s.c., survival/tumor T/C
Experiment: NCI In Vivo Anticancer Drug Screen. Data for tumor model Sarcoma M5076 (subcutaneous) in B6D2F1 (BDF1) mice
Procedure: The antitumor activity of compounds was measured in mice bearing transplantable tumors. Survival or tumor size were measured and the results are expressed as the measurement made in the treated group (T) divided by the measurement made in the vehicle treated control group (C). The tumor model used in this assay is Sarcoma M5076 (subcutaneous) in B6D2F1 (BDF1) mice

[1] = endpoint: mean tumor weight, dose: 100.0 mg/kg/injection, schedule: Q02DX011 (ip), vehicle: Klucel (hydroxypropylcellulose) (HPC), higher = larger tumour
[2] = endpoint: median tumor weight (est.), dose: 100.0 mg/kg/injection, schedule: Q02DX011 (ip), vehicle: Klucel (hydroxypropylcellulose) (HPC), higher = larger tumour
[3] = endpoint: median survival time, dose: 50.0 mg/kg/injection, schedule: Q01DX009 (ip), vehicle: saline with Tween-80, higher = longer survival
[4] = endpoint: median survival time, dose: 100.0 mg/kg/injection, schedule: Q01DX009 (ip), vehicle: saline with Tween-80, higher = longer survival
[5] = endpoint: median tumor weight (est.), dose: 50.0 mg/kg/injection, schedule: Q01DX009 (ip), vehicle: saline with Tween-80, higher = larger tumour
[6] = endpoint: median tumor weight (est.), dose: 100.0 mg/kg/injection, schedule: Q01DX009 (ip), vehicle: saline with Tween-80, higher = larger tumour

`COC1C(O)C(C)OC(OC2C(Oc3cccc4c(O)c5c(=O)oc6ccc(C)c7c(=O)oc(c34)c5c67)OC(C)C(O)C2O)C1O` (stereo not drawn) was tested. Which T/C (endpoint: mean tumor weight, dose: 25.0 mg/kg/injection, schedule: Q02DX011 (ip), vehicle: Klucel (hydroxypropylcellulose) (HPC), higher = larger tumour) did it give?
The T/C was 83 % of control.

What about the T/C (endpoint: mean tumor weight, dose: 50.0 mg/kg/injection, schedule: Q02DX011 (ip), vehicle: Klucel (hydroxypropylcellulose) (HPC), higher = larger tumour) of the same molecule?
Its T/C is 96 % of control.

And the T/C [1]?
The T/C was 57 % of control.

And the T/C (endpoint: median tumor weight (est.), dose: 50.0 mg/kg/injection, schedule: Q02DX011 (ip), vehicle: Klucel (hydroxypropylcellulose) (HPC), higher = larger tumour)?
Its T/C is 82 % of control.

What about the T/C [2] of the same molecule?
Its T/C is 48 % of control.

`COc1cc(/C=C2\SC(=S)N(c3ccc(Cl)c(Cl)c3)C2=O)ccc1O` was tested. Which T/C [3] did it give?
The T/C was 90 % of control.

And the T/C [4]?
Its T/C is 94 % of control.

And the T/C [5]?
Its T/C is 105 % of control.

And the T/C [6]?
The T/C was 117 % of control.

`COC1CC2C=C(C)/C=C/C=C/C(=O)NC(c3ccccc3)C/C=C/CCC(O)CC(=O)C2=C1O` (stereo not drawn) was tested. Which T/C (endpoint: median survival time, dose: 1.0 mg/kg/injection, schedule: Q01DX009 (ip), vehicle: Klucel (hydroxypropylcellulose) (HPC), higher = longer survival) did it give?
The T/C was 100 % of control.

And the T/C (endpoint: median survival time, dose: 2.0 mg/kg/injection, schedule: Q01DX009 (ip), vehicle: Klucel (hydroxypropylcellulose) (HPC), higher = longer survival)?
Its T/C is 100 % of control.

And the T/C (endpoint: median survival time, dose: 4.0 mg/kg/injection, schedule: Q01DX009 (ip), vehicle: Klucel (hydroxypropylcellulose) (HPC), higher = longer survival)?
The T/C was 100 % of control.

And the T/C (endpoint: median tumor weight (est.), dose: 1.0 mg/kg/injection, schedule: Q01DX009 (ip), vehicle: Klucel (hydroxypropylcellulose) (HPC), higher = larger tumour)?
The T/C was 77 % of control.

What about the T/C (endpoint: median tumor weight (est.), dose: 2.0 mg/kg/injection, schedule: Q01DX009 (ip), vehicle: Klucel (hydroxypropylcellulose) (HPC), higher = larger tumour) of the same molecule?
Its T/C is 109 % of control.

What about the T/C (endpoint: median tumor weight (est.), dose: 4.0 mg/kg/injection, schedule: Q01DX009 (ip), vehicle: Klucel (hydroxypropylcellulose) (HPC), higher = larger tumour) of the same molecule?
The T/C was 82 % of control.

Which T/C [1] does the source give for `CC(=O)O[C@]1(C(C)=O)CC[C@H]2[C@@H]3C[C@H](C)C4=CC(=O)CC[C@]4(C)[C@H]3CC[C@@]21C` here?
Its T/C is 44 % of control.

What about the T/C (endpoint: mean tumor weight, dose: 200.0 mg/kg/injection, schedule: Q02DX011 (ip), vehicle: Klucel (hydroxypropylcellulose) (HPC), higher = larger tumour) of the same molecule?
The T/C was 122 % of control.

What about the T/C (endpoint: mean tumor weight, dose: 400.0 mg/kg/injection, schedule: Q02DX011 (ip), vehicle: Klucel (hydroxypropylcellulose) (HPC), higher = larger tumour) of the same molecule?
Its T/C is 74 % of control.

And the T/C [2]?
Its T/C is 49 % of control.

What about the T/C (endpoint: median tumor weight (est.), dose: 200.0 mg/kg/injection, schedule: Q02DX011 (ip), vehicle: Klucel (hydroxypropylcellulose) (HPC), higher = larger tumour) of the same molecule?
The T/C was 86 % of control.

What about the T/C (endpoint: median tumor weight (est.), dose: 400.0 mg/kg/injection, schedule: Q02DX011 (ip), vehicle: Klucel (hydroxypropylcellulose) (HPC), higher = larger tumour) of the same molecule?
The T/C was 59 % of control.

Which T/C [3] does the source give for `O=C1/C(=C/c2ccc3c(c2)OCO3)SC(=S)N1c1ccc(Cl)c(Cl)c1` here?
The T/C was 102 % of control.

What about the T/C [4] of the same molecule?
The T/C was 90 % of control.

What about the T/C [5] of the same molecule?
The T/C was 154 % of control.

What about the T/C [6] of the same molecule?
Its T/C is 116 % of control.

`NC(C/[N+]([O-])=N/O)C(=O)O` (stereo not drawn) was tested. Which T/C (endpoint: mean tumor weight, dose: 62.5 mg/kg/injection, schedule: Q02DX011 (ip), vehicle: saline, higher = larger tumour) did it give?
Its T/C is 88 % of control.

And the T/C (endpoint: mean tumor weight, dose: 125.0 mg/kg/injection, schedule: Q02DX011 (ip), vehicle: saline, higher = larger tumour)?
Its T/C is 108 % of control.

And the T/C (endpoint: mean tumor weight, dose: 250.0 mg/kg/injection, schedule: Q02DX011 (ip), vehicle: saline, higher = larger tumour)?
Its T/C is 42 % of control.

What about the T/C (endpoint: median survival time, dose: 8.78 mg/kg/injection, schedule: Q01DX010 (ip), vehicle: alkali diluted with saline, higher = longer survival) of the same molecule?
Its T/C is 88 % of control and 90 % of control.

And the T/C (endpoint: median survival time, dose: 13.2 mg/kg/injection, schedule: Q01DX010 (ip), vehicle: alkali diluted with saline, higher = longer survival)?
The T/C was 91 % of control and 93 % of control.

And the T/C (endpoint: median survival time, dose: 19.8 mg/kg/injection, schedule: Q01DX010 (ip), vehicle: alkali diluted with saline, higher = longer survival)?
The T/C was 118 % of control.

What about the T/C (endpoint: median survival time, dose: 29.6 mg/kg/injection, schedule: Q01DX010 (ip), vehicle: alkali diluted with saline, higher = longer survival) of the same molecule?
Its T/C is 114 % of control and 118 % of control.

And the T/C (endpoint: median survival time, dose: 44.4 mg/kg/injection, schedule: Q01DX010 (ip), vehicle: alkali diluted with saline, higher = longer survival)?
Its T/C is 105 % of control and 106 % of control.

What about the T/C (endpoint: median survival time, dose: 52.7 mg/kg/injection, schedule: Q04DX005 (ip), vehicle: alkali diluted with saline, higher = longer survival) of the same molecule?
Its T/C is 89 % of control and 90 % of control.

What about the T/C (endpoint: median survival time, dose: 66.7 mg/kg/injection, schedule: Q01DX010 (ip), vehicle: alkali diluted with saline, higher = longer survival) of the same molecule?
Its T/C is 115 % of control and 116 % of control.

And the T/C (endpoint: median survival time, dose: 79.0 mg/kg/injection, schedule: Q04DX005 (ip), vehicle: alkali diluted with saline, higher = longer survival)?
The T/C was 93 % of control.

And the T/C (endpoint: median survival time, dose: 119.0 mg/kg/injection, schedule: Q04DX005 (ip), vehicle: alkali diluted with saline, higher = longer survival)?
Its T/C is 123 % of control.

And the T/C (endpoint: median survival time, dose: 267.0 mg/kg/injection, schedule: Q04DX005 (ip), vehicle: alkali diluted with saline, higher = longer survival)?
Its T/C is 106 % of control and 112 % of control.

What about the T/C (endpoint: median survival time, dose: 400.0 mg/kg/injection, schedule: Q04DX005 (ip), vehicle: alkali diluted with saline, higher = longer survival) of the same molecule?
The T/C was 115 % of control.

What about the T/C (endpoint: median tumor weight (est.), dose: 50.0 mg/kg/injection, schedule: Q02DX011 (ip), vehicle: alkali diluted with saline, higher = larger tumour) of the same molecule?
Its T/C is 91 % of control.

What about the T/C (endpoint: median tumor weight (est.), dose: 100.0 mg/kg/injection, schedule: Q02DX011 (ip), vehicle: alkali diluted with saline, higher = larger tumour) of the same molecule?
The T/C was 66 % of control.

What does the source list for `C[C@@H](CN1CC(=O)NC(=O)C1)N1CC(=O)NC(=O)C1`?
T/C (endpoint: median survival time, dose: 32.0 mg/kg/injection, schedule: Q01DX009 (ip), vehicle: saline with Tween-80, higher = longer survival): 119 % of control; T/C (endpoint: median survival time, dose: 64.0 mg/kg/injection, schedule: Q01DX009 (ip), vehicle: saline with Tween-80, higher = longer survival): 108 % of control and 111 % of control; T/C (endpoint: median survival time, dose: 128.0 mg/kg/injection, schedule: Q01DX009 (ip), vehicle: saline with Tween-80, higher = longer survival): 115 % of control and 119 % of control; T/C (endpoint: median tumor weight (est.), dose: 32.0 mg/kg/injection, schedule: Q01DX009 (ip), vehicle: saline with Tween-80, higher = larger tumour): 68 % of control; T/C (endpoint: median tumor weight (est.), dose: 64.0 mg/kg/injection, schedule: Q01DX009 (ip), vehicle: saline with Tween-80, higher = larger tumour): 36 % of control and 58 % of control; T/C (endpoint: median tumor weight (est.), dose: 128.0 mg/kg/injection, schedule: Q01DX009 (ip), vehicle: saline with Tween-80, higher = larger tumour): 18 % of control and 37 % of control; T/C (endpoint: median tumor weight (est.), dose: 256.0 mg/kg/injection, schedule: Q01DX009 (ip), vehicle: saline with Tween-80, higher = larger tumour): 14 % of control
